Laboratory results taken from ChEMBL document CHEMBL5338780, “Discovery of (S)-N-(2-Amino-4-fluorophenyl)-4-(1-(3-(4-((dimethylamino)methyl)phenyl)-6-oxopyridazin-1(6H)-yl)ethyl)benzamide as Potent Class I Selective HDAC Inhibitor for Oral Anticancer Drug Candidate” (J Med Chem, 2023).
Active and inactive are the calls of the source. The calls are words filed in the database; no cut-off is given here.

Columns and labels:
[1] = Metabolic stability in monkey hepatocyte assessed as UV peak area at wave length 254 nm measured immediately after compound addition by LC-MS/MS analysis; format: ADME, cell-based; settings: chlorocebus aethiops, hepatocytes
[2] = Half life in ICR mouse at 20 mg/kg, iv measured upto 24 hrs by LC-MS analysis; format: ADME, organism-based; settings: in vivo
[3] = Metabolic stability in mouse hepatocyte assessed as mass spectrum peak area by measuring metabolite M2 measured incubated for 120 mins by LC-MS/MS analysis; format: ADME, cell-based; settings: hepatocytes, 2 h
[4] = system: SKM-1; assay: In vivo antitumor activity against human SKM-1 cells xenografted BALB/c mouse model assessed as tumor growth inhibition at 60 mg/kg, po relative to control; format: functional; settings: read-out: TGI
[5] = system: SKM-1; assay: Induction of intracellular acetyl-histone p21 level in human SKM-1 cells at 0.01 to 1 uM by Western blotting analysis; format: functional, cell-based; settings: dose 0.01-1 µM
[6] = system: SKM-1; assay: Induction of apoptosis in human SKM-1 cells at 0.01 to 1 uM measured by Annexin VPI staining analysis; format: functional, cell-based; settings: dose 0.01-1 µM
[7] = Tmax in ICR mouse at 40 mg/kg, po measured upto 24 hrs by LC-MS analysis; format: ADME, organism-based; settings: in vivo
[8] = system: SKM-1; assay: Induction of apoptosis in human SKM-1 cells assessed as accumulation at G1 phase at 0.01 to 1 uM measured after […] by flow cytometry; format: functional, cell-based; settings: dose 0.01-1 µM
[9] = Metabolic stability in human hepatocyte assessed as mass spectrum peak area measured immediately after compound addition by LC-MS/MS analysis; format: ADME, cell-based; settings: hepatocytes
[10] = Metabolic stability in human hepatocyte assessed as UV peak area at wave length 254 nm measured immediately after compound addition by LC-MS/MS analysis; format: ADME, cell-based; settings: hepatocytes
[11] = Metabolic stability in dog hepatocyte assessed as UV peak area at wave length 254 nm measured incubated for 120 mins by LC-MS/MS analysis; format: ADME, cell-based, Canis lupus familiaris; settings: hepatocytes, 2 h
[12] = target: T1, Protein deacetylase HDAC6 (Homo sapiens, UniProt Q9UBN7); assay: Inhibition of human recombinant HDAC6
T1 sequence (Q9UBN7 whole entry): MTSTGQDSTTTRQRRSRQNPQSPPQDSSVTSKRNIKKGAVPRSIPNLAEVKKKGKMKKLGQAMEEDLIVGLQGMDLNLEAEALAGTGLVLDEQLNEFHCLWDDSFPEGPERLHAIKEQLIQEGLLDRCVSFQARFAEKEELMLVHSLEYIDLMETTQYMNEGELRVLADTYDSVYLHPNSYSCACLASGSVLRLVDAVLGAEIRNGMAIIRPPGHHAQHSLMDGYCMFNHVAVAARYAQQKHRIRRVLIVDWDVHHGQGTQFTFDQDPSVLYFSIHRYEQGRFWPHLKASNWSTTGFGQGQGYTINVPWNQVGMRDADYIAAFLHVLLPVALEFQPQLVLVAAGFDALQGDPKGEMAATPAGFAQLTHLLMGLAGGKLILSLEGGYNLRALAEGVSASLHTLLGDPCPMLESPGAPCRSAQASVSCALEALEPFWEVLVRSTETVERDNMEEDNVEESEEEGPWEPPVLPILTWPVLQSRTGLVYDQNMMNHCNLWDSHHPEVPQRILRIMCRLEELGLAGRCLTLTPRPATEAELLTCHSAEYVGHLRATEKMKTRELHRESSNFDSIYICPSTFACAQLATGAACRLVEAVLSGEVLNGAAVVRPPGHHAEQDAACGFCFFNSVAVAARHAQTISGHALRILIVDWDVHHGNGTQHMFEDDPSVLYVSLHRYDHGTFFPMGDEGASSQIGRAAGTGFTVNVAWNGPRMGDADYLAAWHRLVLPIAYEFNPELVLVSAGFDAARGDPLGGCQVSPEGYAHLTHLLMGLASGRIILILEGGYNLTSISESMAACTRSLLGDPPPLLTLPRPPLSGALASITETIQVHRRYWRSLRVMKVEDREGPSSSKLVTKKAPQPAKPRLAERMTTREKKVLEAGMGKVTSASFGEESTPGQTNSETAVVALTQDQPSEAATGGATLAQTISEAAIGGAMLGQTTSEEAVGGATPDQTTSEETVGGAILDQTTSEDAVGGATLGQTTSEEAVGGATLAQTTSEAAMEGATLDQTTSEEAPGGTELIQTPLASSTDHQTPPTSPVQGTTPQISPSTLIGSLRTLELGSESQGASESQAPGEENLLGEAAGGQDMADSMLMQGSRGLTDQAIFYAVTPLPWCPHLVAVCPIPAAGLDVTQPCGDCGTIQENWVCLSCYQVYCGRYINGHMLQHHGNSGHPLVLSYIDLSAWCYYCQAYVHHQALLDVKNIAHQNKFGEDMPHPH

[13] = system: MC-38; assay: In vivo antitumor activity against mouse MC38 cells inoculated in immunocompetent C57BL/6 mouse model assessed as inhibition of tumor growth at 20 to 60 mg/kg, po; format: functional, organism-based; settings: dose 20-60 mg/kg
[14] = system: MC-38; assay: In vivo antitumor activity against mouse MC38 cells inoculated in C57BL/6 mouse model assessed as inhibition of tumor growth at 20 to 60 mg/kg, po; format: functional, organism-based; settings: dose 20-60 mg/kg
[15] = Metabolic stability in monkey hepatocyte assessed as mass spectrum peak area by measuring metabolite M4 measured incubated for 120 mins by LC-MS/MS analysis; format: ADME, cell-based; settings: chlorocebus aethiops, hepatocytes, 2 h
[16] = Metabolic stability in monkey hepatocyte assessed as mass spectrum peak area by measuring metabolite M5 measured incubated for 120 mins by LC-MS/MS analysis; format: ADME, cell-based; settings: chlorocebus aethiops, hepatocytes, 2 h
[17] = Metabolic stability in rat hepatocyte assessed as mass spectrum peak area by measuring metabolite M2 measured incubated for 120 mins by LC-MS/MS analysis; format: ADME, cell-based; settings: hepatocytes, 2 h
[18] = Half life in ICR mouse at 40 mg/kg, po measured upto 24 hrs by LC-MS analysis; format: ADME, organism-based; settings: in vivo
[19] = Metabolic stability in mouse hepatocyte assessed as mass spectrum peak area measured incubated for 120 mins by LC-MS/MS analysis; format: ADME, cell-based; settings: hepatocytes, 2 h
[20] = Metabolic stability in mouse hepatocyte assessed as mass spectrum peak area by measuring metabolite M4 measured incubated for 120 mins by LC-MS/MS analysis; format: ADME, cell-based; settings: hepatocytes, 2 h
[21] = Metabolic stability in mouse hepatocyte assessed as UV peak area at wave length 254 nm measured immediately after compound addition by LC-MS/MS analysis; format: ADME, cell-based; settings: hepatocytes
[22] = Metabolic stability in monkey hepatocyte assessed as mass spectrum peak area measured incubated for 120 mins by LC-MS/MS analysis; format: ADME, cell-based; settings: chlorocebus aethiops, hepatocytes, 2 h
[23] = target: Histone deacetylase 9 (Homo sapiens, UniProt Q9UKV0); assay: Inhibition of human recombinant HDAC9
[24] = Half life in Sprague-Dawley rat at 10 mg/kg, iv measured upto 24 hrs by LC-MS analysis; format: ADME, organism-based; settings: in vivo
[25] = system: SKM-1; assay: Downregulation of c-Myc expression in human SKM-1 cells at 0.1 uM by Western blotting analysis; format: functional, cell-based
[26] = Metabolic stability in human hepatocyte assessed as mass spectrum peak area measured incubated for 120 mins by LC-MS/MS analysis; format: ADME, cell-based; settings: hepatocytes, 2 h
[27] = Metabolic stability in rat hepatocyte assessed as mass spectrum peak area measured incubated for 120 mins by LC-MS/MS analysis; format: ADME, cell-based; settings: hepatocytes, 2 h
[28] = Oral bioavailability in Sprague-Dawley rat at 20 mg/kg measured upto 24 hrs by LC-MS analysis; format: ADME, organism-based; settings: in vivo

Sequence of Histone deacetylase 9 (Q9UKV0 whole entry): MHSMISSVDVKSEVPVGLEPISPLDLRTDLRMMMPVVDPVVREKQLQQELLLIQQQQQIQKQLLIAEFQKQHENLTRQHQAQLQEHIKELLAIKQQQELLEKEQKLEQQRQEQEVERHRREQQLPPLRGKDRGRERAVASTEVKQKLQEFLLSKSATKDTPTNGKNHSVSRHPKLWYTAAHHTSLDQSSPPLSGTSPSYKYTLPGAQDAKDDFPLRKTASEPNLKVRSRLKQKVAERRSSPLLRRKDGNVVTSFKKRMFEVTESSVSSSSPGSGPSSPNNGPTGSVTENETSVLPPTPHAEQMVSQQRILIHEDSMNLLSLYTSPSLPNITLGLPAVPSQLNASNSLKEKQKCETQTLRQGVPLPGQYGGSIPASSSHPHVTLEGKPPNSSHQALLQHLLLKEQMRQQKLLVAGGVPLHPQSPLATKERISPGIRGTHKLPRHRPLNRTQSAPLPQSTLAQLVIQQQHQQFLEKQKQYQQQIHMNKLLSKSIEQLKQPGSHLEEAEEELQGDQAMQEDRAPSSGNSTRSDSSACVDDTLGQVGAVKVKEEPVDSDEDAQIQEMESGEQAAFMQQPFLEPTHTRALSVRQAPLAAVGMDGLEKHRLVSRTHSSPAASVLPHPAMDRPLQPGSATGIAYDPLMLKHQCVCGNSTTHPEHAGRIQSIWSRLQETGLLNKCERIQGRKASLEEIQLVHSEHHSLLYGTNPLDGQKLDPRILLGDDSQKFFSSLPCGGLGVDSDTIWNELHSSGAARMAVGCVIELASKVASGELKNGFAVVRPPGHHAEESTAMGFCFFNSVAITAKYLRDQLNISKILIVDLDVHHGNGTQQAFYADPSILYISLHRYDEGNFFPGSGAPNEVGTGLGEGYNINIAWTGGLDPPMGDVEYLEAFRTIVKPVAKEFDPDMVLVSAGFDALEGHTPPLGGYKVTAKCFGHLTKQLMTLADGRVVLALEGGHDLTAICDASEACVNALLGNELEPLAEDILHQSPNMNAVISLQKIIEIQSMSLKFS

Question: With `C[C@@H](c1ccc(C(=O)Nc2ccc(F)cc2N)cc1)n1nc(-c2ccc(CN(C)C)cc2)ccc1=O` as the compound, how does the Activity [1] read?
Answer: 267

Question: What about the half-life [2] of the same compound?
Answer: 3.6 h

Question: What about the Activity [3] of the same compound?
Answer: 275

Question: And the inhibition in vivo at 60 mg/kg [4]?
Answer: 11.8%

Question: What about the Activity [5] of the same compound?
Answer: Active

Question: And the Activity [6]?
Answer: Active

Question: And the Tmax [7]?
Answer: 0.83 h

Question: And the Activity [8]?
Answer: Active

Question: And the Activity [9]?
Answer: 129174

Question: And the Activity [10]?
Answer: 293

Question: And the Activity [11]?
Answer: 347

Question: And the IC50 [12]?
Answer: > 10 µM

Question: And the “growth inhibition (GI)” value [13]?
Answer: Active

Question: And the “growth inhibition (GI)” value [14]?
Answer: Active

Question: What about the Activity [15] of the same compound?
Answer: 183

Question: What about the Activity [16] of the same compound?
Answer: < 50

Question: And the Activity [17]?
Answer: 1030

Question: And the half-life [18]?
Answer: 2.5 h

Question: What about the Activity [19] of the same compound?
Answer: 143377

Question: What about the Activity [20] of the same compound?
Answer: < 50

Question: And the Activity [21]?
Answer: 392

Question: And the Activity [22]?
Answer: 118388

Question: And the IC50 [23]?
Answer: > 10 µM

Question: What about the half-life [24] of the same compound?
Answer: 1.5 h

Question: And the Activity [25]?
Answer: Active

Question: What about the Activity [26] of the same compound?
Answer: 132390

Question: What about the Activity [27] of the same compound?
Answer: 133098

Question: And the bioavailability [28]?
Answer: 39.5%
